The nature of data set [1]: Solubility in JP2 fluid after shaking 5 minutes (shake flask method). The settings on record: for Concentration (solubility in JP2 fluid after shaking 5 minutes): JP2 fluid pH 6.8, about 5 mg in 5 mL, shaking 5 minutes at room temperature, filtration, HPLC. The class given is physicochemical. The procedure:
Measurement of Solubility in JP2 Fluid after Shaking 5 minutes (Shake Flask Method)
Sample solutions were prepared by placing each sample (about 5 mg) in test tube, adding 5 mL of “2nd fluid” as described in General Tests (disintegration test) of Japanese Pharmacopeia (JP2 fluid: pH 6.8), and shaking 5 minutes at room temperature, followed by filtration. These sample solutions were analyzed using high performance liquid chromatography (HPLC), and calculated the concentration.
HPLC System: LC-10AT System (from Shimadzu Corporation)
Detector: ultraviolet absorptiometer (wavelength: 290 nm)
Column: YMC Pack Pro C18, 4.6 mm I.D.×150 mm (from YMC, Japan)
Column temperature: 35° C.
Auto sampler temperature: 25° C.
A: water/acetonitrile/ammonium acetate (900:100:1, v/v/w)
B: water/acetonitrile/ammonium acetate (100:900:1, v/v/w)
(Isocratic Condition: B Concentration=40%)

A further data set deals with AMPA receptor. The settings on record: see Patent Document 1 (WO/JP01/96308); cited from earlier work.

Regarding `N#Cc1ccccc1-c1cc(-c2ccccn2)cn(-c2ccccc2)c1=O` [Example 1], the “solubility in a solution such as JP2 fluid” value in data set [1] (JP2 fluid (2nd fluid of Disintegration Test, Japanese pharmacopoeia)) is on record as “excellent solubility”. The “Concentration (solubility in JP2 fluid after shaking 5 minutes)” value in data set [1] stood at 12.5 µg/mL.

For `N#Cc1ccccc1-c1cc(-c2ccccn2)cn(-c2ccccc2)c1=O` [Reference Example 1, 3-(2-cyanophenyl)-5-(2-pyridyl)-1-phenyl-1,2-dihydropyridin-2-one, reference compound], the “Concentration (solubility in JP2 fluid after shaking 5 minutes)” value in data set [1] worked out at 4.8 µg/mL.

Take `N#Cc1ccccc1-c1cc(-c2ccccn2)cn(-c2ccccc2)c1=O` [compound (1), 3-(2-cyanophenyl)-5-(2-pyridyl)-1-phenyl-1,2-dihydropyridin-2-one]: the “antagonistic action against AMPA receptor” value in the data set on AMPA receptor is “significant antagonistic action”.
